# Source: the kinase profiling compilation of Christmann-Franck et al. (2016)
# “And” between values parts separate entries of the source, which are not always exact repeats. Identical values can stand only once.
# Key:
# Assay in all cases: radiometric filter-binding kinase assay, Kinase HotSpot
# Settings in all cases: compound 0.5 µM; ATP 10 µM
# [1] = target: AURKA (human) (UniProt O14965)
# [2] = target: CAMK4 (human) (UniProt Q16566)
# [3] = target: CAMKK2 (human) (UniProt Q96RR4)
# [4] = target: CDC42BPA (human) (UniProt Q5VT25)
# Sequence of CDC42BPA (human) (Q5VT25 whole entry, looked up): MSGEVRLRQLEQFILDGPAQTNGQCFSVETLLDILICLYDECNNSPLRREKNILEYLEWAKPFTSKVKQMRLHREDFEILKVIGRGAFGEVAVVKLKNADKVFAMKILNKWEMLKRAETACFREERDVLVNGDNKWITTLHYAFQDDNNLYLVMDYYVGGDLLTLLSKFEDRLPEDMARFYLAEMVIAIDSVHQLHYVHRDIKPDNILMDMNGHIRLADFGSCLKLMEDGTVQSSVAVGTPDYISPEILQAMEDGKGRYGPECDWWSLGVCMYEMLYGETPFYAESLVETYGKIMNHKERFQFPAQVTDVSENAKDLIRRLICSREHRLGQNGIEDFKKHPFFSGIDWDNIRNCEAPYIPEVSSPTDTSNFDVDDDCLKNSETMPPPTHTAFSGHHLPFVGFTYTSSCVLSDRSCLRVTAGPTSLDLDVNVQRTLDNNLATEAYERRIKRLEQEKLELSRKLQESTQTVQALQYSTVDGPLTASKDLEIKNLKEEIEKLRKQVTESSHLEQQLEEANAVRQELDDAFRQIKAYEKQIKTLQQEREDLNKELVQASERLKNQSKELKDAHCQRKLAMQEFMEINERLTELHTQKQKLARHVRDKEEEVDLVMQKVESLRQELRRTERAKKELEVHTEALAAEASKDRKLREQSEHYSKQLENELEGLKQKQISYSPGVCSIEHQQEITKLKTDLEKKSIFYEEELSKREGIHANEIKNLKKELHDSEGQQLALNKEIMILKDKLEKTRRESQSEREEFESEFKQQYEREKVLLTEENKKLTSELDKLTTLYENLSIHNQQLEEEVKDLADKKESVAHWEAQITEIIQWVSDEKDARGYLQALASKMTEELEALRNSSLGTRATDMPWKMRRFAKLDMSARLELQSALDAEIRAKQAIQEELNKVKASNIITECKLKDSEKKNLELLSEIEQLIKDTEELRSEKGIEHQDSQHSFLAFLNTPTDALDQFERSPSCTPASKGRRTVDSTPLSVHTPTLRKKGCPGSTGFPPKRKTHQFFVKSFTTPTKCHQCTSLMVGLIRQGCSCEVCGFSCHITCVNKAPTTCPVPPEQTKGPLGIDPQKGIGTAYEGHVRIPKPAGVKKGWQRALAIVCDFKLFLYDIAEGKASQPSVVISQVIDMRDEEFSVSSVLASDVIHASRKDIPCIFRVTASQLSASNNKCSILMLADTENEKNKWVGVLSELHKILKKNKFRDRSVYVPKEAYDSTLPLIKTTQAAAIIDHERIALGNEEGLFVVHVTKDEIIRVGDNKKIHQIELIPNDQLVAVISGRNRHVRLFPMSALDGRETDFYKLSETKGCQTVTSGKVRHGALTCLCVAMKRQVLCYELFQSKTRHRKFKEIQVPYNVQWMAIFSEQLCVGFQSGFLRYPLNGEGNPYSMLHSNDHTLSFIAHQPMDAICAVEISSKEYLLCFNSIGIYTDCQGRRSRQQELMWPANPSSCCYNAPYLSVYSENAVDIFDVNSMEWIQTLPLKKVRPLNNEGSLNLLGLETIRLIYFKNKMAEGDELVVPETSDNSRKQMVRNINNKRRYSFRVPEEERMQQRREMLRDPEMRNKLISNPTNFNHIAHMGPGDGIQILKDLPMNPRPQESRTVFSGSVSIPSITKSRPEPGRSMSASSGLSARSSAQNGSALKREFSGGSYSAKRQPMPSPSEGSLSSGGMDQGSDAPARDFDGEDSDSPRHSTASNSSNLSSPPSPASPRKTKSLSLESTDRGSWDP
# [5] = target: CDK2 CCNE1 (human) (UniProt P24941+P24864)
# [6] = target: CDK6 CCND3 (human) (UniProt P30281+Q00534)
# [7] = target: CHEK1 (human) (UniProt O14757)
# [8] = target: CLK1 (human) (UniProt P49759)
# Sequence of CLK1 (human) (P49759 whole entry, looked up): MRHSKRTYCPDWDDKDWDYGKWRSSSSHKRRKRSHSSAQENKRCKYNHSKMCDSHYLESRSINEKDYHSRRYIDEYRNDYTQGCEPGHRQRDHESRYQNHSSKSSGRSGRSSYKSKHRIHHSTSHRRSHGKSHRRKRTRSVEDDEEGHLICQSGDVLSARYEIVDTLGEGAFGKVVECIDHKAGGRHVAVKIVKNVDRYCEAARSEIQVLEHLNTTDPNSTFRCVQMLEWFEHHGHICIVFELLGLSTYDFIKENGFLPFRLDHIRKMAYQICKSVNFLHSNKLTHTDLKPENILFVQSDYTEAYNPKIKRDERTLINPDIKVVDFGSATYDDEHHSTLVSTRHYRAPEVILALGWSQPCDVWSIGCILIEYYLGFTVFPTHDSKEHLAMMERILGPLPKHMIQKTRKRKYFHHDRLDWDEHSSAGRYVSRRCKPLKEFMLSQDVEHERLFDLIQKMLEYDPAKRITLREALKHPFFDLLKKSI
# [9] = target: CSNK2A1 (human) (UniProt P68400)
# [10] = target: DCLK2 (human) (UniProt Q8N568)
# [11] = target: DYRK1B (human) (UniProt Q9Y463)
# [12] = target: EPHA1 (human) (UniProt P21709)
# [13] = target: EPHA3 (human) (UniProt P29320)
# [14] = target: FGFR3 (human) (UniProt P22607)
# [15] = target: FLT1 (human) (UniProt P17948)
# [16] = target: FYN (human) (UniProt P06241)
# Sequence of FYN (human) (P06241 whole entry, looked up): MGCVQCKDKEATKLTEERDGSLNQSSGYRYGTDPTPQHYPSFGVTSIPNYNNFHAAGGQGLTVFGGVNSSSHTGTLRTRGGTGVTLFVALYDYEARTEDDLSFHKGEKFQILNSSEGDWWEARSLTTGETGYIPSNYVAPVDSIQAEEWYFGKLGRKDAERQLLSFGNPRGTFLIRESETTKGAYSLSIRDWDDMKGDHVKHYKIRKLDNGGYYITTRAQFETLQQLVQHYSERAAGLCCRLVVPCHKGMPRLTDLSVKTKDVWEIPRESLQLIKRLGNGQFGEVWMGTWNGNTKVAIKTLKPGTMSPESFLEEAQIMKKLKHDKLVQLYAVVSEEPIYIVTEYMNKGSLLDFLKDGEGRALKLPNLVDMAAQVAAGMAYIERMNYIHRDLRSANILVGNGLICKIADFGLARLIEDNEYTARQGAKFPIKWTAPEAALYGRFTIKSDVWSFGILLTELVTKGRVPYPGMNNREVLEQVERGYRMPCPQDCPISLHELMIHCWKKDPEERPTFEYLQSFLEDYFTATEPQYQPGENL
# [17] = target: GRK4 (human) (UniProt P32298)
# [18] = target: GRK7 (human) (UniProt Q8WTQ7)
# [19] = target: HCK (human) (UniProt P08631)
# Sequence of HCK (human) (P08631 whole entry, looked up): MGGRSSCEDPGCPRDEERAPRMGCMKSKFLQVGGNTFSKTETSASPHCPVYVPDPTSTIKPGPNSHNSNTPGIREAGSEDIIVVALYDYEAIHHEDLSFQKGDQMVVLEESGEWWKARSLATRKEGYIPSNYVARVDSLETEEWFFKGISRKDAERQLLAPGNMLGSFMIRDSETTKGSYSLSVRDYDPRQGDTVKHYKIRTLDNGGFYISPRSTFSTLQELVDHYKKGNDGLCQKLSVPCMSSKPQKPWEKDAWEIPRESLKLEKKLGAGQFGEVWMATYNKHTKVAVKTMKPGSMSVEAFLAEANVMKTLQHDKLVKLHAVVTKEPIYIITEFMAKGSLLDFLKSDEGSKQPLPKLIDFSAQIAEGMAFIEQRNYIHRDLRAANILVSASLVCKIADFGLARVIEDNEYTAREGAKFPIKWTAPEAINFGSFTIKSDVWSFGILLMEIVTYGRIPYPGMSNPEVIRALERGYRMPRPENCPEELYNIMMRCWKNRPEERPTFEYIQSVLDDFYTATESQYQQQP
# [20] = target: LYN (human) (UniProt P07948)
# [21] = target: MAP3K3 (human) (UniProt Q99759)
# [22] = target: MAPK3 (human) (UniProt P27361)
# [23] = target: MAPK8 (human) (UniProt P45983)
# [24] = target: MAPKAPK5 (human) (UniProt Q8IW41)
# [25] = target: MARK2 (human) (UniProt Q7KZI7)
# Sequence of MARK2 (human) (Q7KZI7 whole entry, looked up): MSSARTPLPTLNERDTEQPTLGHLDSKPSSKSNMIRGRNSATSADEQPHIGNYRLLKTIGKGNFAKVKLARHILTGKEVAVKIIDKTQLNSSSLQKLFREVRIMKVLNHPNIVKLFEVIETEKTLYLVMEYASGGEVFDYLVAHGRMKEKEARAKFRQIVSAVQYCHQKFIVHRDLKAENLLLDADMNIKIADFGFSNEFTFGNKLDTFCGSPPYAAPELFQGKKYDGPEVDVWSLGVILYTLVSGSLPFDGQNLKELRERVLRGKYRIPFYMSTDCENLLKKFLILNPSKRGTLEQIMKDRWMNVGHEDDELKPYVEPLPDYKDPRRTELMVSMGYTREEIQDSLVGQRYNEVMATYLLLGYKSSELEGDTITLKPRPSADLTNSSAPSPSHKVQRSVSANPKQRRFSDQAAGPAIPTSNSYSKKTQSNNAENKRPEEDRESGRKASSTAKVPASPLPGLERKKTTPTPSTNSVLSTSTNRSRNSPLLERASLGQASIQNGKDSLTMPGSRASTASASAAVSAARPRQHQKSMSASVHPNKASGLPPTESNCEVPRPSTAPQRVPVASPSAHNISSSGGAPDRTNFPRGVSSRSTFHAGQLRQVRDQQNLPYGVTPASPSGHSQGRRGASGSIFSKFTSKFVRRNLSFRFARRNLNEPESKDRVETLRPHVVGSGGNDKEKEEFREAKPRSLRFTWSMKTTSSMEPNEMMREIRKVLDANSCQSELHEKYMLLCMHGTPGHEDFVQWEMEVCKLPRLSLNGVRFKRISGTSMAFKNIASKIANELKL
# [26] = target: MET (human) (UniProt P08581)
# [27] = target: NEK1 (human) (UniProt Q96PY6)
# [28] = target: NEK11 (human) (UniProt Q8NG66)
# [29] = target: NTRK3 (human) (UniProt Q16288)
# [30] = target: PAK3 (human) (UniProt O75914)
# [31] = target: PBK (human) (UniProt Q96KB5)
# [32] = target: PLK1 (human) (UniProt P53350)
# [33] = target: PRKCA (human) (UniProt P17252)
# [34] = target: PRKCB2 (human) (UniProt P05771)
# [35] = target: PRKCH (human) (UniProt P24723)
# [36] = target: PRKCZ (human) (UniProt Q05513)
# [37] = target: PTK2B (human) (UniProt Q14289)
# Sequence of PTK2B (human) (Q14289 whole entry, looked up): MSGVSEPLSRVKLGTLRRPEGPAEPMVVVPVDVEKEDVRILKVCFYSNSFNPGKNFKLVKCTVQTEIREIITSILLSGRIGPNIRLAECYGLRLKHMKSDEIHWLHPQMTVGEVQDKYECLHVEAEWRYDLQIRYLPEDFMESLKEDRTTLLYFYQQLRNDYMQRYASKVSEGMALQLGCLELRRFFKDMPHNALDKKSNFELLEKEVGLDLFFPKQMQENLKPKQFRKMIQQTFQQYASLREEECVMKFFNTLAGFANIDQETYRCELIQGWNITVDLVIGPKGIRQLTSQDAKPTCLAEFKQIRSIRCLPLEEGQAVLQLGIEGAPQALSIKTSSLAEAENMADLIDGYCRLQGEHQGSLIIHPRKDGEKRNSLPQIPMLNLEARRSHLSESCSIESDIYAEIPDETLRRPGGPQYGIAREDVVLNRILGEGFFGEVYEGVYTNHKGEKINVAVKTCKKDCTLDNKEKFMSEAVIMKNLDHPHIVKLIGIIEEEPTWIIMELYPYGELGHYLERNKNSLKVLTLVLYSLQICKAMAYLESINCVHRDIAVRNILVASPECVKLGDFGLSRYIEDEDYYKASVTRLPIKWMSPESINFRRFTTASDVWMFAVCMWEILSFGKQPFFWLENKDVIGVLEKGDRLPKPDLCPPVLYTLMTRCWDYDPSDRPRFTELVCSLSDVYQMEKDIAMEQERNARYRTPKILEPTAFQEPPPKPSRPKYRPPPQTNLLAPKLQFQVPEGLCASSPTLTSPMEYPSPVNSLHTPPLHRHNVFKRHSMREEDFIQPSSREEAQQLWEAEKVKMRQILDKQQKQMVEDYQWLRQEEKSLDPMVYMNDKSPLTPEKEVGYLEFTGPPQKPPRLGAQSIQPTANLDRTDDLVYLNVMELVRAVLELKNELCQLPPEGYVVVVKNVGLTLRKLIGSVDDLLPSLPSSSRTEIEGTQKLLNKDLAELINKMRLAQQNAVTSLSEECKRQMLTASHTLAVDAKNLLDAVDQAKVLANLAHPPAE
# [38] = target: RPS6KA4 KD2 (human) (UniProt O75676)
# [39] = target: SIK2 (human) (UniProt Q9H0K1)
# [40] = target: TBK1 (human) (UniProt Q9UHD2)
# [41] = target: WNK2 (human) (UniProt Q9Y3S1)
# [42] = target: YES1 (human) (UniProt P07947)
structure (smiles),measurement,setting,value
O=C1Nc2ccccc2/C1=C1\Nc2ccccc2\C1=N/O,residual activity,[1],21.3%
same,residual activity,[2],97.4%
same,residual activity,[3],66.8%
same,residual activity,[4],93.7%
same,residual activity,[5],31.3%
same,residual activity,[6],26.1%
same,residual activity,[7],65.3%
same,residual activity,[8],90.9%
same,residual activity,[9],78.2%
same,residual activity,[10],88.5%
same,residual activity,[11],84.7%
same,residual activity,[12],99.4%
same,residual activity,[13],92%
same,residual activity,[14],70.4%
same,residual activity,[15],73.6%
same,residual activity,[16],43.3%
same,residual activity,[17],98.3%
same,residual activity,[18],84.4%
same,residual activity,[19],60.2%
same,residual activity,[20],64.6% and 79.6%
same,residual activity,[21],94.4%
same,residual activity,[22],90.4%
same,residual activity,[23],101%
same,residual activity,[24],101%
same,residual activity,[25],78.4%
same,residual activity,[26],110%
same,residual activity,[27],96.9%
same,residual activity,[28],98.2%
same,residual activity,[29],2.17%
same,residual activity,[30],92.6%
same,residual activity,[31],89.5%
same,residual activity,[32],100%
same,residual activity,[33],97.7%
same,residual activity,[34],101%
same,residual activity,[35],74.4%
same,residual activity,[36],95.2%
same,residual activity,[37],65.8%
same,residual activity,[38],58.7%
same,residual activity,[39],89.8%
same,residual activity,[40],53.6%
same,residual activity,[41],99.8%
same,residual activity,[42],45.1%
Cc1nc2cc3nc(-c4cccs4)cnc3cc2n1C,residual activity,[1],84.8%
same,residual activity,[2],94.7%
same,residual activity,[3],112%
same,residual activity,[4],109%
same,residual activity,[5],91.4%
same,residual activity,[6],87.8%
same,residual activity,[7],99.8%
same,residual activity,[8],111%
same,residual activity,[9],101%
same,residual activity,[10],104%
same,residual activity,[11],102%
same,residual activity,[12],87.1%
same,residual activity,[13],102%
same,residual activity,[14],67.1%
same,residual activity,[15],93.6%
same,residual activity,[16],107%
same,residual activity,[17],104%
same,residual activity,[18],96.6%
same,residual activity,[19],98%
same,residual activity,[20],117% and 97.8%
same,residual activity,[21],117%
same,residual activity,[22],117%
same,residual activity,[23],93.7%
same,residual activity,[24],100%
same,residual activity,[25],81.4%
same,residual activity,[26],111%
same,residual activity,[27],94%
same,residual activity,[28],93.1%
same,residual activity,[29],59.9%
same,residual activity,[30],98.8%
same,residual activity,[31],98.9%
same,residual activity,[32],109%
same,residual activity,[33],74.7%
same,residual activity,[34],121%
same,residual activity,[35],96.8%
same,residual activity,[36],95.6%
same,residual activity,[37],96.4%
same,residual activity,[38],88.4%
same,residual activity,[39],112%
same,residual activity,[40],93%
same,residual activity,[41],123%
same,residual activity,[42],66.9%
Cn1sc(=O)n(Cc2ccccc2)c1=O,residual activity,[1],104%
same,residual activity,[2],93.2%
same,residual activity,[3],95.2%
same,residual activity,[4],94%
same,residual activity,[5],95.1%
same,residual activity,[6],100%
same,residual activity,[7],103%
same,residual activity,[8],112%
same,residual activity,[9],95.4%
same,residual activity,[10],98.5%
same,residual activity,[11],103%
same,residual activity,[12],106%
same,residual activity,[13],107%
same,residual activity,[14],100%
same,residual activity,[15],96.1%
same,residual activity,[16],105%
same,residual activity,[17],101%
same,residual activity,[18],112%
same,residual activity,[19],103%
same,residual activity,[20],90.8% and 98.9%
same,residual activity,[21],94.2%
same,residual activity,[22],90.4%
same,residual activity,[23],85.5%
same,residual activity,[24],94.2%
same,residual activity,[25],118%
same,residual activity,[26],64.2%
same,residual activity,[27],102%
same,residual activity,[28],102%
same,residual activity,[29],107%
same,residual activity,[30],100%
same,residual activity,[31],107%
same,residual activity,[32],97.2%
same,residual activity,[33],71.8%
same,residual activity,[34],111%
same,residual activity,[35],89%
same,residual activity,[36],101%
same,residual activity,[37],91%
same,residual activity,[38],99%
same,residual activity,[39],98.6%
same,residual activity,[40],102%
same,residual activity,[41],99.1%
same,residual activity,[42],96.3%
